# Data taken from patent US12338270B2, “Pharmaceutical composition comprising polypeptide” (D&D Pharmatech Inc., priority 2018, dated 2025).
# Non-standard residues stand in square brackets, D forms with d. No end group written: not given here. tri‑branched mPEG‑MAL 50 kDa = tri-branched maleimide-activated monomethoxy PEG, 50 kDa; Aib = CC(C)(N)C(=O)O
# Key:
# [1] = tested on: db/db mice; assay: blood glucose and body weight in db/db mice (Experimental Example 4); type: in vivo
# Protocol: First of all, the conjugate of Example 2 was administered to 7-week-old db/db mice by subcutaneous injection at a dose of 20 nmol/kg once every other day for 12 days. For 12 days when the drug was administered, the changes in blood glucose and body weights were measured once every other day after the drug administration.
# [2] = tested on: obesity animal model (C57BL/6 mice, 60% high-fat diet); assay: body weight, food intake and blood glucose in high-fat diet obesity animal model (Experimental Example 2); type: in vivo; conditions: for Blood glucose / Body weight / Food intake: 20 nmol/kg s.c. once every other day; for Food intake: cumulative
# Protocol: First, an obesity animal model was prepared by feeding a 60% high-fat diet to normal C57BL/6 mice (approximately 6 weeks old) for approximately 24 weeks, and increasing the body weights of the mice to approximately 50 g on average. Thereafter, the conjugate of Example 2 was administered by subcutaneous injection at a dose of 20 nmol/kg once every other day for 2 weeks. […] For 2 weeks when the drug was administered, the food intake, the blood glucose, and the body weights were measured once every other day at given points of time.
# In this case, the body weights and the blood glucose were expressed in the percentage (%) on the basis of 100% before the administration (Day 0).
# [3] = 20 nmol/kg s.c. once every other day for 12 days
# [4] = day 0, 20 nmol/kg s.c. once every other day
# [5] = day 2, 20 nmol/kg s.c. once every other day
# [6] = day 4, 20 nmol/kg s.c. once every other day
# [7] = day 6, 20 nmol/kg s.c. once every other day
# [8] = day 8, 20 nmol/kg s.c. once every other day
# [9] = day 10, 20 nmol/kg s.c. once every other day
# [10] = day 12, 20 nmol/kg s.c. once every other day
# [11] = day 0 (before administration = 100%)
substance,measurement,setting,value
Example 2: Conjugate of polypeptide H(Aib)QGTFTSDYSKYLDEQAAKEFVQWLMNTC (SEQ ID NO. 2) and tri-branched mPEG-MAL (MW: 50 kDa) (H[Aib]QGTFTSDYSKYLDEQAAKEFVQWLMNTC(tri‑branched mPEG‑MAL 50 kDa); lactam (positions not given here); not fully specified (bridges); printed as H(Aib)QGTFTSDYSKYLDEQAAKEFVQWLMNTC),body weight vs non-treated group,[1]; [3],body weight loss was observed
same,level of blood glucose vs non-treated group,[1]; [3],a level of blood glucose was lowered
same,Blood glucose,[1]; [4],100%
same,Body weight,[1]; [4],100%
same,Blood glucose,[1]; [5],88%
same,Body weight,[1]; [5],96%
same,Blood glucose,[1]; [6],34%
same,Body weight,[1]; [6],91%
same,Blood glucose,[1]; [7],25%
same,Body weight,[1]; [7],86%
same,Blood glucose,[1]; [8],17%
same,Body weight,[1]; [8],84%
same,Blood glucose,[1]; [9],17%
same,Body weight,[1]; [9],79%
same,Blood glucose,[1]; [10],16%
same,Body weight,[1]; [10],76%
same,level of blood glucose reduced compared to before the administration,[2]; 20 nmol/kg s.c. once every other day for 2 weeks,approximately 80%
same,Blood glucose,[2]; [11],100%
same,Body weight,[2]; [11],100%
same,Food intake,[2]; day 0,0 g
same,Blood glucose,"[2]; day 2, % of Day 0",87%
same,Body weight,"[2]; day 2, % of Day 0",97%
same,Food intake,[2]; day 2,4 g
same,Blood glucose,"[2]; day 4, % of Day 0",75%
same,Body weight,"[2]; day 4, % of Day 0",94%
same,Food intake,[2]; day 4,8 g
same,Blood glucose,"[2]; day 6, % of Day 0",48%
same,Body weight,"[2]; day 6, % of Day 0",89%
same,Food intake,[2]; day 6,11 g
same,Blood glucose,"[2]; day 8, % of Day 0",32%
same,Body weight,"[2]; day 8, % of Day 0",82%
same,Food intake,[2]; day 8,13 g
same,Blood glucose,"[2]; day 10, % of Day 0",35%
same,Body weight,"[2]; day 10, % of Day 0",74%
same,Food intake,[2]; day 10,15 g
same,Blood glucose,"[2]; day 12, % of Day 0",32%
same,Body weight,"[2]; day 12, % of Day 0",68%
same,Food intake,[2]; day 12,17 g
same,Blood glucose,"[2]; day 14, % of Day 0",18%
same,Body weight,"[2]; day 14, % of Day 0",61%
